Experimental data taken from patent US20250276078A1, “Camptothecin Derivative And Ligand-drug Conjugate Thereof” (Baili-Bio (Chengdu) Pharmaceutical Co., Ltd., priority 2020, published 2025).
Read-outs that look alike come from different tables or passages of the source.

Legend:
BxPc-3 = experiment: Cell activity test of camptothecin chiral derivatives (MTS); format: cell-based
Method: (§1) Cell-based in vitro experiments are used to determine cell survival, cytotoxicity and programmed cell death induced by camptothecin drugs disclosed in the present invention.
(§2) The in vitro efficacy of camptothecin was determined by cell proliferation test. CellTiter 96® Aqueous One Solution Cell Proliferation Assay is commercially available (Promega Corp., Madison, WI). CellTiter96® Aqueous One Solution Cell Proliferation Assay (a) is a test reagent that can be used to measure the number of viable cells from cell proliferation and cytotoxicity tests by colorimetric assay. The reagent contains a new tetrazolium compound [3-(4, 5-dimethylthiazol-2-yl)-5-(3-carboxymethoxyphenyl)-2-(4-sulfophenyl)-2h-Tetrazolium, inner salt; MTS] and an electron coupling agent (phenazine ethosulfate; PES). PES has enhanced chemical stability, which allows it to be mixed with MTS to form stable solutions. MTS (Owen's reagent) is reduced by cellular organisms into a variety of colored methylate products, which can be dissolved directly in the medium. This transformation is most likely accomplished with the help of NADPH or NADH produced by dehydrogenase in metabolically active cells. For detection, appropriate amount of CellTiter96® Aqueous One Solution Reagent is added directly into the medium of culture plate hole, incubated for 1-4 hours, and the absorbance value of 490 nm is read with enzyme label instrument.
(§3) The amount of methylate detected at 490 nm is proportional to the number of live cells in the culture. Due to the dissolubility of the methyls of MTS in tissue medium, CellTiter 96® Aqueous One Solution is performed with fewer steps than the MTT or INT methods.
(§4) The 96-well plates were uniformly inoculated with appropriate cell density and incubated at 37° C. in carbon dioxide incubator. 24 hours later, the cells were confirmed to be normal under the microscope, and camptothecin drugs were administered. Camptothecin drug was diluted in the medium (initial concentration was 1 uM, 7 times diluted, with 8 concentration points. The last two columns were control group (i.e., cell+medium, no drug treatment) and blank group (i.e., cell-free, only containing medium, for background subtraction). After fully mixing the drug, the drug was added into the corresponding cell hole and incubated at 37° C. in a carbon dioxide incubator for 3 days. After 3 days, 20 ul MTS (Promegm, G3581) were added to each well for 2 h, and a machine reader (from Molecular Device, model: SpectraMAX190) took readings at 490 nM. By detecting the activity of dehydrogenase in mitochondria, IC50 was calculated to evaluate the inhibitory effect of camptothecin on cell proliferation. The corresponding test results of camptothecin chiral derivative IC50 (nM) were as follows: PGP-99 T2

SK-BR-3 = experiment: as above; format: cell-based
Method: as §1, §2, §3, §4

SW620 = experiment: as above; format: cell-based
Method: as §1, §2, §3, §4

A431 = experiment: as above; format: cell-based
Method: as §1, §2, §3, §4

[1] = Log P value test (partition coefficient in n-octane (oil) and water); format: physicochemical
From the text: The log P values are closely related to water solubility, membrane permeability, in vivo ADME process and affinity between the compound and the receptor, which play a key role in the process of the compound's penetration through the biofilm. The log P value was obtained by testing the partition coefficient of camptothecin drug in n-octane (oil) and water, the results are shown as follows: […]

MDA-MB-468 = experiment: Cell activity test of camptothecin chiral derivatives (MTS); format: cell-based
Method: as §1
as §2, with “The reagent contains a new tetrazolium compound [3-(4, 5-dimethylthiazol-2-yl)-5-(3-carboxymethoxyphenyl)-2-(4-sulfophenyl)-2h-Tetrazolium, inner salt; MTS] and an electron coupling agent (phenazine ethosulfate; PES).” left out
as §3
as §4, with “24 hours later, the cells were confirmed to be normal under the microscope, and camptothecin drugs were administered.” left out, “proliferation.” for “proliferation. The corresponding test results of camptothecin chiral derivative IC50 (nM) were as follows: PGP-99 T2”

[2] = Homo sapiens, 72 h, BxPc-3, 3 days, read-out: IC50
[3] = Homo sapiens, 72 h, SK-BR-3, 3 days, read-out: IC50
[4] = Homo sapiens, SW-620, 72 h, SW620, 3 days, read-out: IC50
[5] = Homo sapiens, A-431, 72 h, A431, 3 days, read-out: IC50
[6] = Homo sapiens, MDA-MB-468, 72 h, read-out: IC50

SMILES	IC50 (BxPc-3; [2]) [nM]	IC50 (SK-BR-3; [3]) [nM]	IC50 (SW620; [4]) [nM]	IC50 (A431; [5]) [nM]	logD hydrocarbon water ([1]; LogP)	IC50 (MDA-MB-468; [6]) [nM]	other results
CC[C@@]1(O)C(=O)OCc2c1cc1n(c2=O)Cc2c-1nc1cc(F)c(C)c3c1c2[C@H](NC(=O)CO)CC3 [Compound 2]							IC50 (BxPc-3; Homo sapiens, BXPC-3, 72 h): 4 nM; IC50 (SK-BR-3; Homo sapiens, SK-BR-3, 72 h): 1.78 nM; IC50 (SW620; Homo sapiens, SW-620, 72 h): 2.89 nM; IC50 (A431; Homo sapiens, A-431, 72 h): 4.5 nM; logD hydrocarbon water ([1]; n-octane (oil) / water, read-out: LogP): 1.8; IC50 (MDA-MB-468; Homo sapiens, MDA-MB-468, 72 h): 0.002 nM
CC[C@@]1(O)C(=O)OCc2c1cc1n(c2=O)Cc2c-1nc1cc(F)c(C)c3c1c2[C@H](NC(=O)[C@H](O)C1CC1)CC3 [Compound 8]	1.1	< 0.01	1.18	1.84	1.8	< 0.001	
CC[C@@]1(O)C(=O)OCc2c1cc1n(c2=O)Cc2c-1nc1cc(F)c(C)c3c1c2[C@H](NC(=O)[C@@H](C)O)CC3 [Compound 4]	2.85		0.92	3.1	1.9		
CC[C@@]1(O)C(=O)OCc2c1cc1n(c2=O)Cc2c-1nc1cc(F)c(C)c3c1c2[C@@H](NC(=O)[C@H](O)C1CC1)CC3 [Compound 16, reference compound]					2.6		
CC[C@@]1(O)C(=O)OCc2c1cc1n(c2=O)Cc2c-1nc1cc(F)c(C)c3c1c2[C@H](NC(=O)[C@@H](O)C(F)(F)F)CC3 [Compound 6]	0.416	9.1	0.093	0.689	1.9		
CC[C@@]1(O)C(=O)OCc2c1cc1n(c2=O)Cc2c-1nc1cc(F)c(C)c3c1c2[C@@H](NC(=O)[C@@H](C)O)CC3 [Compound 12, reference compound]					2.5		
CC[C@@]1(O)C(=O)OCc2c1cc1n(c2=O)Cc2c-1nc1cc(F)c(C)c3c1c2[C@@H](NC(=O)[C@H](C)O)CC3 [Compound 11, reference compound]					2.5		
CC[C@@]1(O)C(=O)OCc2c1cc1n(c2=O)Cc2c-1nc1cc(F)c(C)c3c1c2[C@@H](NC(=O)[C@H](O)C(F)(F)F)CC3 [Compound 13, reference compound]							LogP [1]: 2.6
CC[C@@]1(O)C(=O)OCc2c1cc1n(c2=O)Cc2c-1nc1cc(F)c(C)c3c1c2[C@H](NC(=O)[C@@H](O)C1CC1)CC3 [Compound 7]	0.801	< 0.01	0.894	0.961	1.7	< 0.001	
CC[C@@]1(O)C(=O)OCc2c1cc1n(c2=O)Cc2c-1nc1cc(F)c(C)c3c1c2[C@@H](NC(=O)[C@H](O)C(F)(F)F)CC3 [Compound 5]	1.73	8.49	0.866	2.83	1.9	8.91	
CC[C@@]1(O)C(=O)OCc2c1cc1n(c2=O)Cc2c-1nc1cc(F)c(C)c3c1c2[C@@H](NC(=O)[C@@H](O)C1CC1)CC3 [Compound 15, reference compound]					2.7		
CC[C@@]1(O)C(=O)OCc2c1cc1n(c2=O)Cc2c-1nc1cc(F)c(C)c3c1c2[C@@H](NC(=O)[C@@H](O)C(F)(F)F)CC3 [Compound 14, reference compound]					2.6		
CC[C@@]1(O)C(=O)OCc2c1cc1n(c2=O)Cc2c-1nc1cc(F)c(C)c3c1c2[C@@H](NC(=O)CO)CC3 [Dxd, reference compound]							IC50 (BxPc-3; BxPc-3, 3 days, read-out: IC50): 3.97 nM; IC50 (SK-BR-3; SK-BR-3, 3 days, read-out: IC50): 19.7 nM; IC50 (SW620; SW620, 3 days, read-out: IC50): 1.95 nM; IC50 (A431; A431, 3 days, read-out: IC50): 4.99 nM; IC50 (MDA-MB-468; MDA-MB-468, 3 days, read-out: IC50): 10.7 nM
CC[C@@]1(O)C(=O)OCc2c1cc1n(c2=O)Cc2c-1nc1cc(F)c(C)c3c1c2[C@H](NC(=O)[C@H](C)O)CC3 [Compound 3]	3.66	15	1.29	4.19	1.6	0.22	
CC[C@@]1(O)C(=O)OCc2c1cc1n(c2=O)Cc2c-1nc1cc(F)c(C)c3c1c2[C@H](NC(=O)C1(CO)CCC1)CC3 [Compound 9]	1.07	7.32	1.11	1.52	1.6	0.525	
